Key:
[1] = test system: PTEN mRNA; test: Immunoblot of PTEN and phosphorylated Akt after GeneBloc transfection of 3Y1 cells; type: cell-based, rat
Method: A total of three different antisense oligonucleotides, also referred to as geneblocs herein, namely PTEN 48, PTEN 57 and PTEN 53 were transfected into rat-embryo fibroblast cell line together with a negative control comprising a randomised sequence (also referred to herein as GBC). More particularly, 3Y1 cells on 10 cm plates were transfected with 15 or 30 nM of the three different PTEN specific Geneblocs 48, 57 and 53 and with GBC. After 48 h cells were harvested and the cell extracts were analyzed by immunoblotting for the relative protein amounts of p110, Akt, phosphorylated Akt (P*-Akt) and PTEN as indicated on the right. […] The concentration dependency of the antisense oligonucleotides can be particularly well seen from the use of PTEN 57 and PTEN 53 and was confirmed by further experiments. The most powerful antisense oligonucleotide among said three antisense oligonucleotides was PTEN 53. P110 was used as a marker to reflect the loading of each of the lanes.
In the corresponding experiment PTEN 53 was used as the antisense oligonucleotide and a total of four mismatches were introduced to the particular sequence with the total length of PTEN 57 being 23 nucleotides. Again, GBC was used as a negative control. The sequence of the mismatch oligonucleotide is BucucauuTsTssCssTspl sTssTssGssTssGsscucacgaB (SEQ ID No. 33) with B representing an inverted abasic nucleotide. In addition an antisense oligonucleotide was prepared specific for the mRNA of luciferase inhibiting luciferase expression in cells engineered to express the recombinant firefly gene. The respective lane on the Western blot is designated as “luc”. The same experiment was carried out using either 30 nM or 60 nM antisense oligonucleotide. As mentioned in connection with FIG. 3, P110 serves as an internal loading standard.
Transfections were carried out in 96 well or 10-cm plates (at 30% to 50% confluency) by using various cationic lipids such as Oligofectamine, Lipofectamine (Life Technologies), NC388 (Ribozyme Pharmaceuticals, Inc., Boulder, CO), or FuGene 6 (Roche) according to the manufacturer's instructions. […] molecules, including third generation antisense molecules, were transfected by adding pre-formed 5× concentrated complex of GeneBloc and lipid in serum-free medium to cells in complete medium. The total transfection volume was 100 μl for cells plated in 96 wells and 10 ml for cells in 10 cm plates. The final lipid concentration was 0.8 to 1.2 μg/ml depending on cell density; the GeneBloc concentration is indicated in each experiment.
(§1) Cells were washed twice with cold phosphate-buffered saline and lysed at 4° C. in lysis buffer containing 20 mM Tris (pH 7.5), 137 mM NaCl, 15% (vol/vol) glycerol, 1% (vol/vol) Nonidet P-40 (NP-40), 2 mM phenylmethylsulfonyl fluoride, […], 20 mM leupeptin, 2 mM benzamidine, 1 mM sodium vanadate, 25 mM […]-glycerol phosphate, 50 mM NaF and 10 mM NaPPi. Lysates were cleared by centrifugation at 14,000× g for 5 minutes and aliquots of the lysates were analyzed for protein expression by Western-blotting: Samples were separated by SDS-PAGE and transferred to nitrocellulose-filters (Schleicher & Schuell). Filters were blocked in TBST buffer (10 mM Tris-HCl (pH 7.5), 150 mM NaCl, 0.05% (vol/vol) Tween 20, 0.5% (wt/vol) sodium azide) containing 5% (wt/vol) dried milk. The respective antibodies were added in TBST at appropriate dilutions. Bound antibody was detected using anti-mouse- or anti-rabbit-conjugated horse radish peroxidase (Transduction Laboratories, BD) in TBST, washed, and developed using the SuperSignal West Dura (Pierce) or ECL (Amersham) chemoluminescence substrates. […]
To further ensure that Akt phosphorylation is not caused by an artefact or by stress imposed through the transfection conditions we tested various negative control third generation antisense molecules (negative control GeneBlocs). […]

[2] = test system: PTEN mRNA; test: Immunoblot of phosphorylated Akt after GeneBloc transfection of PTEN negative PC-3 cells; type: cell-based, human; details: PC-3 cells (PTEN negative), 30 nM, 48 h
Method: More particularly, HeLa cells (380.000 cells/plate) and PC-3 cells (450.000 cells/plate) were transfected in parallel on 10 cm plates. Each cell line was treated for 48 h in duplicate samples with 30 nM of PTEN GeneBloc 53 or GBC. The cell extracts were analyzed by immunoblotting for the relative amounts of p110, PTEN and phosphorylated Akt (P*-Akt) as indicated on the right. The band which migrates just above the PTEN signal was caused by unspecific reaction of the secondary antibody. […]
as §1, with “Filters were blocked in TBST buffer (10 mM Tris-HCl (pH 7.5), 150 mM NaCl, 0.05% (vol/vol) Tween 20, 0.5% (wt/vol) sodium azide) containing 5% (wt/vol) dried milk. The respective antibodies were added in TBST at appropriate dilutions.” left out

[3] = 30 nM or 60 nM, PTEN 53 versus negative control GeneBlocs
[4] = 3Y1 cells, 15 or 30 nM GeneBloc, 48 h
[5] = 3Y1 cells, 15 or 30 nM GeneBloc, 48 h, listed as PTEN GeneBloc 53

Substance: ucuccuuTTGTTTCTGcuaacga (UCUCCUUTTGTTTCTGCUAACGA; chemistry not fully specified) [PTEN 53, third generation antisense oligonucleotide (GeneBloc) against PTEN]
- PTEN protein / PTEN mRNA degradation (immunoblot) [1, 3]: inhibited PTEN expression
- phosphorylated Akt (P*-Akt) (immunoblot) [1, 3]: resulted in the phosphorylation of Akt
- phosphorylated Akt (P*-Akt) (immunoblot) ([1]; 30 nM or 60 nM, PTEN 53 versus negative control GeneBlocs, listed as PTEN GeneBloc 53): caused an increase in Akt phosphorylation
- PTEN protein (immunoblot) [1, 4]: no longer present
- phosphorylated Akt (P*-Akt) (immunoblot) [1, 4]: phosphorylated Akt could be detected
- PTEN protein (immunoblot) [1, 5]: most efficient knock down in PTEN expression
- phosphorylated Akt (P*-Akt) (immunoblot) [1, 5]: strongest increase in Akt phosphorylation
- ranking among the three PTEN antisense oligonucleotides ([1]; 3Y1 cells, 15 or 30 nM, 48 h): most powerful
- phosphorylated Akt (P*-Akt) (immunoblot) [2]: generate phosphorylated Akt irrespective
- phosphorylated Akt (P*-Akt) (immunoblot) ([2]; listed as PTEN GeneBloc 53): had no effect

Source: patent US20030135033A1, “Compounds and methods for the identification and/ or validation of a target” (priority 2002, published 2003)
